# Data reported in patent US20220389009A1, “SUBSTITUTED 1,6-NAPHTHYRIDINE INHIBITORS OF CDK5” (Goldfinch Bio, Inc., priority 2019, published 2022).
# Columns and labels:
# [1] = target: CDK5/p25 (Homo sapiens, UniProt Q00535); test: CDK5 mobility shift assay (enzymatic activity of CDK5/p25); type: biochemical; conditions: for IC50: 0.154 nM CDK5/p25, FL peptide 29, 60 min at room temperature, read-out: CDK5 IC50; for CDK5/CDK2 specificity: fold more active against CDK5 than CDK2
# Description: (§1) Compound potency was measured via a change in the enzymatic activity of CDK5/p25, and optionally of CDK2/CycA2. Enzymes, CDK5/p25 and CDK2/CycA2, were sourced from Carna Biosciences (Cat #04-106 and 04-103, respectively). Test compound stocks were diluted in 100% DMSO and serially diluted 3-fold in a 384-well plate using a TECAN EVO200 (TECAN). Staurosporine was used as a reference control compound in all assays.
# (§2) Twenty nL of compound were transferred into a 384-well plate (Greiner 781201) using an Echo550 (Labcyte Inc). Enzyme, ATP, and 10 mM MgCl2 were preincubated at room temperature with the compound in assay buffer (50 mM HEPES pH 7.5, 1 mM EGTA, 0.01% Brij-35, 0.05% BSA, 2 mM DTT) for 30 minutes. Peptide substrate (FL peptide 29 (Perkin Elmer) for CDK5/p25; FL Peptide 18 (Perkin Elmer) for CDK2/CycA2) was added to initiate the reaction. The final assay contained 0.154 nM CDK5/p25 or 1.25 nM CDK2/CycA2, […] (for CDK5/p25) or 37 μM (for CDK2/CycA2) ATP, and 1.5 μM of the appropriate peptide substrate. The final DMSO concentration was <1%.
# (§3) The CDK5/p25 reaction was incubated at room temperature for 60 min. The CDK2/CycA2 reaction was incubated at room temperature for 120 min. The reactions were quenched by the addition of 70 μL stopping buffer containing 0.5 M EDTA. Samples were analyzed using the EZ Reader (Perkin Elmer).
# (§4) The results were expressed as % vehicle, where % vehicle=100×(U−C2)/(C1−C2), where U is the signal of sample, C1 is the average of the high controls (signal with no compound added), and C2 is the average of low controls (signal with the buffer in place of enzyme). The ICso is determined by fitting the percentage of inhibition as a function of compound concentrations using a 4-parameter fit defined as follows.
# (§5) Y=Bottom+(Top−Bottom)/(1+10^((LobIC50-X)*Hill Slope)), where X is the log of the compound concentration, Y is the % vehicle or response at X, Top and Bottom are the plateaus in the same units as Y, and the Hill's Slope is unitless, and the ICso is the half-maximal inhibitory concentration.
# [2] = target: CDK2/CycA2 (Homo sapiens, UniProt P24941); test: CDK2 mobility shift assay (enzymatic activity of CDK2/CycA2); type: biochemical; conditions: 1.25 nM CDK2/CycA2, 37 μM ATP, FL Peptide 18, 120 min at room temperature; read-out: CDK2 IC50
# Description: as §1, §2, §3, §4, §5
# Chain of CDK5/p25 (Q00535 whole entry): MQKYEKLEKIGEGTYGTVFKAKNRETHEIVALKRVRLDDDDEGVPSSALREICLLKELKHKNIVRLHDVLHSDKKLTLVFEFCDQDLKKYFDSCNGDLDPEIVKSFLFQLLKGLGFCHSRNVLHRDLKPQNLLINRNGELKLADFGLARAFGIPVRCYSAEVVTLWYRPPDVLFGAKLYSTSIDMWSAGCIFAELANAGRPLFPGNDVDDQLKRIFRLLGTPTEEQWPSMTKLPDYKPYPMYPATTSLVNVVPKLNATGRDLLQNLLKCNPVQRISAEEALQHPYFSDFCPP
# Chain of CDK5/p25 (Q15078 99-307 partner limits assumed): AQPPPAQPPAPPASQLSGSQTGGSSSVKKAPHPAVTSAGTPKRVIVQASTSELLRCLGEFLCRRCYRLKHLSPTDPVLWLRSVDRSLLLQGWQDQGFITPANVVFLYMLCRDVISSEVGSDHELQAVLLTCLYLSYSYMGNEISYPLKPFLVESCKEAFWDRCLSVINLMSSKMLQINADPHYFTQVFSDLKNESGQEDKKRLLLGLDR
Compound,IC50 [1],IC50 [2],CDK5/CDK2 specificity [1]
"CN(C)[C@H]1CC[C@@H](N(CC(=O)O)c2ccc3cnc(Nc4ccc(-n5ccc(CO)n5)cc4F)cc3n2)CC1 [Compound 182, [[7-([2-fluoro-4-[3-(hydroxymethyl)pyrazol-1-yl]phenyl]amino)-1,6-naphthyridin-2-yl][(1s,4s)-4-(dimethylamino)cyclohexyl]amino]acetic acid]",> 1000 nM,> 1000 nM,++ (greater than 10-fold and less than or equal to 100-fold more active against CDK5 than CDK2)
"CS(=O)(=O)N(c1ccc2cnc(Nc3ccc(-n4cccn4)cc3F)cc2n1)C1CCNCC1 [Compound 106, N-(7-[[2-fluoro-4-(pyrazol-1-yl)phenyl]amino]-1,6-naphthyridin-2-yl)-N-(piperidin-4-yl)methanesulfonamide]",> 1000 nM,> 1000 nM,+ (10-fold or less more active against CDK5 than CDK2)
"CN1CCC(C2(c3ccc4cnc(Nc5ccc(-n6ccc(CO)n6)cc5F)cc4n3)CC2)CC1 [Compound 312, [1-[3-fluoro-4-([2-[1-(1-methylpiperidin-4-yl)cyclopropyl]-1,6-naphthyridin-7-yl]amino)phenyl]pyrazol-3-yl]methanol]",10 to 100 nM,> 1000 nM,++ (greater than 10-fold and less than or equal to 100-fold more active against CDK5 than CDK2)
"CN1CCC(Sc2ccc3cnc(Nc4ccc(-n5ccc(CO)n5)cc4F)cc3n2)CC1 [Compound 127, [1-[3-fluoro-4-([2-[(1-methylpiperidin-4-yl)sulfanyl]-1,6-naphthyridin-7-yl]amino)phenyl]pyrazol-3-yl]methanol]",< 10 nM,10 to 100 nM,+++ (greater than 100-fold more active against CDK5 than CDK2)
COc1cc(Nc2cc3nc(S(=O)(=O)C4CCN(C)CC4)ccc3cn2)ccc1NS(C)(=O)=O [Compound 259],< 10 nM,10 to 100 nM,++ (greater than 10-fold and less than or equal to 100-fold more active against CDK5 than CDK2)
"NC(c1ccc2cnc(Nc3ccc(-n4cccn4)cc3F)cc2n1)C1CCNCC1 (stereo not drawn) [Compound 165, 2-[amino(piperidin-4-yl)methyl]-N-[2-fluoro-4-(pyrazol-1-yl)phenyl]-1,6-naphthyridin-7-amine]",10 to 100 nM,100 to 1000 nM,++ (greater than 10-fold and less than or equal to 100-fold more active against CDK5 than CDK2)

# The next lines start with results.
IC50 [1],IC50 [2],Compound,CDK5/CDK2 specificity [1]
< 10 nM,100 to 1000 nM,"CN1CCC(S(=O)(=O)c2ccc3cnc(Nc4ccc(-n5ccc(C(N)=O)n5)cc4F)cc3n2)CC1 [Compound 317, 1-(3-fluoro-4-[[2-(1-methylpiperidin-4-ylsulfonyl)-1,6-naphthyridin-7-yl]amino]phenyl)pyrazole-3-carboxamide]",+++ (greater than 100-fold more active against CDK5 than CDK2)
< 10 nM,10 to 100 nM,CN1CCC(C(C)(O)c2ccc3cnc(Nc4ccc(-c5ccc(C#N)cc5)cc4F)cc3n2)CC1 (stereo not drawn) [Compound 358],++ (greater than 10-fold and less than or equal to 100-fold more active against CDK5 than CDK2)
< 10 nM,10 to 100 nM,CN1CCC(C(C)(O)c2ccc3cnc(Nc4ccc(-c5ccc(C#N)cn5)cc4F)cc3n2)CC1 (stereo not drawn) [Compound 356],++ (greater than 10-fold and less than or equal to 100-fold more active against CDK5 than CDK2)
< 10 nM,100 to 1000 nM,COc1cc(-c2ccc(Nc3cc4nc(C(C)C5CCN(C)CC5)ccc4cn3)c(F)c2)ccn1 (stereo not drawn) [Compound 333],+++ (greater than 100-fold more active against CDK5 than CDK2)
< 10 nM,10 to 100 nM,Cc1ccc(F)c(Nc2cc3nc(C(O)(C4CCN(C)CC4)C(F)(F)F)ccc3cn2)c1 (stereo not drawn) [Compound 394],++ (greater than 10-fold and less than or equal to 100-fold more active against CDK5 than CDK2)
